# PMC10167348, “Structural mechanisms of TRPM7 activation and inhibition” (Nature Communications, 2023)
# “And” between values parts separate entries of the source, which are not always exact repeats. Equal entries are not always repeated.
# Assays:
# TRPM7-A981V = molecular target: T1, TRPM7-A981V (Mus musculus, UniProt Q923J1, A981V); assay: Aequorin-based Ca2+ influx assay, inhibition of TRPM7-mediated Ca2+ influx; assay type: cell-based
# T1 construct: expressed in transfected cells; host or cells: HEK 293T
# Procedure: (§1) Measurements of [Ca^2+]i were performed as reported previously with several modifications[2],[52],[54]. HEK 293T cells (mycoplasma test negative, ATCC #CRL3216) were maintained at 37 °C and 5% CO2 in DMEM supplemented with 10% fetal calf serum, 100 µg/ml streptomycin and 100 U/ml penicillin (all from Thermo Fisher Scientific). Cells cultured in six-well plates (~60% confluence) were transfected with 2 µg/dish Trpm7 plasmid DNA and 0.1 µg/dish pG5A plasmid DNA encoding eGFP fused to Aequorea victoria aequorin, using Lipofectamine 2000 (Thermo Fisher Scientific). Twenty-four hours after transfection, the cells were washed with Mg^2+-free HEPES-buffered saline (Mg^2+-free HBS) containing 140 mM NaCl, 6 mM KCl, 0.5 mM CaCl2, 10 mM HEPES (pH 7.4) and 5 mM glucose, and mechanically resuspended in the Mg^2+-free HBS. For reconstitution of aequorin, cell suspensions were incubated with 5 µM coelenterazine (Biaffin GmbH) in the Mg^2+-free HBS for 30 min at room temperature. Cells were washed twice by centrifugation at 600 rpm for 5 min (Heraeus Pico 17 microcentrifuge, Thermo Fisher Scientific), resuspended in the Mg^2+-free HBS and aliquoted into 96-well plates (1 × 10^5 cells per well). Luminescence was detected at room temperature using a FLUOstar OPTIMA microplate reader (BMG LABTECH GmbH). To monitor the NS8593- and VER155008-induced inhibition of TRPM7-mediated Ca^2+ influx, the extracellular concentration of Ca^2+ was increased to 5 mM by injecting the CaCl2-containing Mg^2+-free HBS in the absence or presence of the inhibitors. […] To study activation by naltriben, TRPM7-transfected cells were exposed to Mg^2+-free HBS containing different concentrations of the agonist. The experiments were terminated by lysing cells with 0.1% (v/v) Triton X-100 in the Mg^2+-free HBS to record the total bioluminescence. The bioluminescence rates (counts/s) were analyzed at 1-s intervals and calibrated as [Ca^2+]i values using the following equation:1 p[Ca^2+]i=0.332588(−log(k))+5.5593 where k represents the rate of aequorin consumption, i.e., counts/s divided by the total number of counts.
# (§2) To determine the IC50 values for NS8593 and VER155008 (EC50 for naltriben), the data were fitted with the following logistic equation:2 Ec=Emin+Emax+Emin/1+c^h/IC50^h where E(c) is the functional effect at the concentration c of the compound, Emin is the minimal effect, Emax is the maximal effect, IC50 (EC50) is the concentration of the compound that produces the half-maximal effect, and h is the Hill coefficient. Fitting of dose-response curves was performed using GraphPad Prism 8.4.0. Data are presented as the mean ± SEM.
# TRPM7-W1111A = molecular target: T2, TRPM7-W1111A (Mus musculus, UniProt Q923J1, W1111A); assay: as above; assay type: cell-based
# T2 construct: expressed in transfected cells; host or cells: HEK 293T
# Procedure: as §1, §2
# TRPM7-A981L = molecular target: T3, TRPM7-A981L (Mus musculus, UniProt Q923J1, A981L); assay: as above; assay type: cell-based
# T3 construct: expressed in transfected cells; host or cells: HEK 293T
# Procedure: as §1, §2
# TRPM7-N1098Q = test system: TRPM7-N1098Q; design: method as in Schmidt et al., 2022, PMID: 35389104; details: ref Schmidt et al., 2022, PMID: 35389104; cited from earlier work
# TRPM7-N752K = molecular target: T4, TRPM7-N752K (Mus musculus, UniProt Q923J1, N752K); assay: Aequorin-based Ca2+ influx assay, activation by naltriben; assay type: cell-based
# T4 construct: expressed in transfected cells; host or cells: HEK 293T
# Procedure: as §1, §2
# TRPM7 WT = molecular target: T5, TRPM7 WT (Mus musculus, UniProt Q923J1); assay: as above; assay type: cell-based; details: for TRPM7 activation, fold: replicate values
# T5 construct: expressed in transfected cells; host or cells: HEK 293T
# Procedure: as §1, §2
# TRPM7-M741A = molecular target: T6, TRPM7-M741A (Mus musculus, UniProt Q923J1, M741A); assay: as above; assay type: cell-based; details: for TRPM7 activation, fold: replicate values
# T6 construct: expressed in transfected cells; host or cells: HEK 293T
# Procedure: as §1, §2
# TRPM7-L671A/N752K = molecular target: T7, TRPM7-L671A/N752K (Mus musculus, UniProt Q923J1, L671A/N752K); assay: as above; assay type: cell-based
# T7 construct: expressed in transfected cells; host or cells: HEK 293T
# Procedure: as §1, §2
# TRPM7-L671A = molecular target: T8, TRPM7-L671A (Mus musculus, UniProt Q923J1, L671A); assay: as above; assay type: cell-based
# T8 construct: expressed in transfected cells; host or cells: HEK 293T
# Procedure: as §1, §2
# TRPM7-S744A = molecular target: T9, TRPM7-S744A (Mus musculus, UniProt Q923J1, S744A); assay: as above; assay type: cell-based
# T9 construct: expressed in transfected cells; host or cells: HEK 293T
# Procedure: as §1, §2
# TRPM7-D670A = molecular target: T10, TRPM7-D670A (Mus musculus, UniProt Q923J1, D670A); assay: as above; assay type: cell-based; details: for TRPM7 activation, fold: replicate values
# T10 construct: expressed in transfected cells; host or cells: HEK 293T
# Procedure: as §1, §2
# [1] = Solubility of the compound (authors' remark); details: mM range could not be examined
# [2] = [NS8593] 0.3 µM, replicate values, read-out: TRPM7 activity, 100%
# [3] = [NS8593] 0.7 µM, replicate values, read-out: TRPM7 activity, 100%
# [4] = [NS8593] 7.0 µM, replicate values, read-out: TRPM7 activity, 100%
# [5] = [NS8593] 1.0 µM, replicate values, read-out: TRPM7 activity, 100%
# [6] = [NS8593] 3.0 µM, replicate values, read-out: TRPM7 activity, 100%
# T1 sequence (Q923J1 whole entry A981V): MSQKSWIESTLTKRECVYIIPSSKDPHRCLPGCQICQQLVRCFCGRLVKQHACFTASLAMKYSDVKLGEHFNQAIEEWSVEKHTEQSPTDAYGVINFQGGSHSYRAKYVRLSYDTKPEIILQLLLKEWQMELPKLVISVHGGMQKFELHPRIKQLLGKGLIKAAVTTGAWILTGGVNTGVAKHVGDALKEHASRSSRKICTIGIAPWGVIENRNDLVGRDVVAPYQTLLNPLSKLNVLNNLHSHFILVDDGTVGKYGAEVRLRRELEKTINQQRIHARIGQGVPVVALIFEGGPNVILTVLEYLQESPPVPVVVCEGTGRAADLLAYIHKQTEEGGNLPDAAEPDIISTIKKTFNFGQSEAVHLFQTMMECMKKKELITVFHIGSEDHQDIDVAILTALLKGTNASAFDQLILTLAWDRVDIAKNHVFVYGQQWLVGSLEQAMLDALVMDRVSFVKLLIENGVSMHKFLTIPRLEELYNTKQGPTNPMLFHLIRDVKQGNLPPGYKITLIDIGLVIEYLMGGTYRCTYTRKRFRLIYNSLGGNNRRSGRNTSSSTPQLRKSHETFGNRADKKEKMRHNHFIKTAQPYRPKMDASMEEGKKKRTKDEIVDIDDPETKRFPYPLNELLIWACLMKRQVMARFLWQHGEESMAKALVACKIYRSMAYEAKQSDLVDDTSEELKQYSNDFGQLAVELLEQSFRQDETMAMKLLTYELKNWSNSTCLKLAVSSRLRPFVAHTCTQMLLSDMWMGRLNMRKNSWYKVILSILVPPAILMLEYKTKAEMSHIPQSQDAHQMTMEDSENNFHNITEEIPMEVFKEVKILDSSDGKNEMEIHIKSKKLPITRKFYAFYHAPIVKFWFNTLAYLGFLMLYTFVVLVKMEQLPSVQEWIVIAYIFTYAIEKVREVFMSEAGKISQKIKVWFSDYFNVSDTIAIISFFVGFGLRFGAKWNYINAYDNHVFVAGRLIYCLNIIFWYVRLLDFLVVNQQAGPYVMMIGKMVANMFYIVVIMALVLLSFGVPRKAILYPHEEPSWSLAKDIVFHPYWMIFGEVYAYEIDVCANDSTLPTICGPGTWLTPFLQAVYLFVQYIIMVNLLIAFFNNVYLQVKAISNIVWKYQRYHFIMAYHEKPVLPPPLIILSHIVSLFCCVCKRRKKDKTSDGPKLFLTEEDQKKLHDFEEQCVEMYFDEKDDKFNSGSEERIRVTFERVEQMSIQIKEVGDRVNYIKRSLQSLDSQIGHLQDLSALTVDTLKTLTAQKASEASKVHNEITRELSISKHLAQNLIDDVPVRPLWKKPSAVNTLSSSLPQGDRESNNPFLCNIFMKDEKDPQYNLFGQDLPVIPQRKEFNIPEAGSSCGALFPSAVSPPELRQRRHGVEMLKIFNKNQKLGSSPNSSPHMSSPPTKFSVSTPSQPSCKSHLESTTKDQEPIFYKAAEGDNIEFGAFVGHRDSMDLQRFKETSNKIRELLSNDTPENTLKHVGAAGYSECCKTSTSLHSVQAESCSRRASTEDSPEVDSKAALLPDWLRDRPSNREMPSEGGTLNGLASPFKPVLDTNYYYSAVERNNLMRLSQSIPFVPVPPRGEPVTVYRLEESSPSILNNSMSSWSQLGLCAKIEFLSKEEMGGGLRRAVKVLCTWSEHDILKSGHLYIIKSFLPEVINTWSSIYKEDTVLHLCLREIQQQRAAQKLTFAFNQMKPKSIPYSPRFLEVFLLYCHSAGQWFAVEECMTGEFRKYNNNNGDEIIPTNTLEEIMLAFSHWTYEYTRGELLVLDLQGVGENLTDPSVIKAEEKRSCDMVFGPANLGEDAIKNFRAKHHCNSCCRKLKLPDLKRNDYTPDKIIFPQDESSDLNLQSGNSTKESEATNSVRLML
# T5 sequence (Q923J1 whole entry): as the sequence (Q923J1 whole entry A981V) above, with V981A counted along it
# T10 sequence (Q923J1 whole entry D670A): as the sequence (Q923J1 whole entry A981V) above, with D670A, V981A counted along it
# T3 sequence (Q923J1 whole entry A981L): as the sequence (Q923J1 whole entry A981V) above, with V981L counted along it
# T2 sequence (Q923J1 whole entry W1111A): as the sequence (Q923J1 whole entry A981V) above, with V981A, W1111A counted along it
# T6 sequence (Q923J1 whole entry M741A): as the sequence (Q923J1 whole entry A981V) above, with M741A, V981A counted along it
# T4 sequence (Q923J1 whole entry N752K): as the sequence (Q923J1 whole entry A981V) above, with N752K, V981A counted along it
# T7 sequence (Q923J1 whole entry L671A/N752K): as the sequence (Q923J1 whole entry A981V) above, with L671A, N752K, V981A counted along it
# T9 sequence (Q923J1 whole entry S744A): as the sequence (Q923J1 whole entry A981V) above, with S744A, V981A counted along it
# T8 sequence (Q923J1 whole entry L671A): as the sequence (Q923J1 whole entry A981V) above, with L671A, V981A counted along it
structure (smiles),measurement,setting,value
c1ccc2c(c1)CCC[C@H]2Nc1nc2ccccc2[nH]1 [NS8593],remaining activity at 0.3 µM,TRPM7-A981V; [2],98.9%
same,remaining activity at 0.7 µM,TRPM7-A981V; [3],97.4%
same,remaining activity at 7 µM,TRPM7-A981V; [4],81.9%
same,Hill coefficient,"TRPM7-A981V; antagonist, mean ± SEM",–1.45 ± 0.50
same,IC50,"TRPM7-A981V; antagonist, mean ± SEM, read-out: IC50",21.9 ± 12.3 µM
same,remaining activity at 0.5 µM,"TRPM7-W1111A; [NS8593] 0.5 µM, replicate values, read-out: TRPM7 activity, 100%",103%
same,remaining activity at 0.7 µM,TRPM7-W1111A; [3],103%
same,remaining activity at 1 µM,TRPM7-W1111A; [5],98.1%
same,remaining activity at 3 µM,TRPM7-W1111A; [6],62.5%
same,remaining activity at 7 µM,TRPM7-W1111A; [4],50.3%
same,Hill coefficient,"TRPM7-W1111A; antagonist, mean ± SEM",–1.54 ± 0.24
same,IC50,"TRPM7-W1111A; antagonist, mean ± SEM",5.14 ± 0.45 µM
same,remaining activity at 0.3 µM,TRPM7-A981L; [2],105%
same,remaining activity at 0.7 µM,TRPM7-A981L; [3],114%
same,remaining activity at 1 µM,TRPM7-A981L; [5],112%
same,remaining activity at 3 µM,TRPM7-A981L; [6],99.4%
same,Hill coefficient,"TRPM7-A981L; antagonist, mean ± SEM",–1.61 ± 0.45
same,IC50,"TRPM7-A981L; antagonist, mean ± SEM",11.6 ± 2.75 µM
"Oc1ccc2c3c1O[C@H]1c4oc5ccccc5c4C[C@@]4(O)[C@@H](C2)N(CC2CC2)CC[C@]314 [Naltriben, naltriben]",response of the N1098Q variant to the agonist,TRPM7-N1098Q,did not respond
same,EC50,TRPM7-N752K,191 ± 18 µM
same,Hill coefficient,"TRPM7-N752K; N752K, agonist, mean ± SEM",1.91 ± 0.24
same,EC50,TRPM7 WT,65.8 ± 12.4 µM
same,"TRPM7 activation, fold","TRPM7 WT; WT, [Naltriben] 100 µM",3.40 fold and 2.89 fold and 2.30 fold and 2.40 fold and 3.03 fold and 3.14 fold
same,"TRPM7 activation, fold","TRPM7 WT; WT, [Naltriben] 200 µM",4.23 fold and 3.70 fold and 3.66 fold and 2.99 fold and 3.63 fold and 3.89 fold
same,"TRPM7 activation, fold","TRPM7 WT; WT, [Naltriben] 300 µM",4.35 fold and 3.85 fold and 3.80 fold and 3.47 fold and 3.56 fold and 4.23 fold
same,"TRPM7 activation, fold","TRPM7 WT; WT, [Naltriben] 400 µM",4.51 fold and 3.90 fold and 3.86 fold and 3.52 fold and 3.70 fold and 4.17 fold
same,"TRPM7 activation, fold","TRPM7 WT; WT, [Naltriben] 500 µM",4.41 fold and 4.17 fold and 4.05 fold and 3.42 fold and 4.20 fold and 4.10 fold
same,Hill coefficient,"TRPM7 WT; WT, agonist, mean ± SEM",1.23 ± 0.25
same,EC50,TRPM7-M741A,85 ± 6.51 µM
same,"TRPM7 activation, fold","TRPM7-M741A; M741A, [Naltriben] 10 µM",0.99 fold and 1.09 fold and 1.07 fold (2×)
same,"TRPM7 activation, fold","TRPM7-M741A; M741A, [Naltriben] 20 µM",1.10 fold and 1.30 fold and 1.28 fold and 1.20 fold
same,"TRPM7 activation, fold","TRPM7-M741A; M741A, [Naltriben] 30 µM",1.39 fold and 1.61 fold and 1.52 fold and 1.40 fold
same,"TRPM7 activation, fold","TRPM7-M741A; M741A, [Naltriben] 40 µM",1.53 fold and 1.69 fold and 1.74 fold and 1.64 fold
same,"TRPM7 activation, fold","TRPM7-M741A; M741A, [Naltriben] 50 µM",1.77 fold and 2.03 fold and 1.91 fold and 1.96 fold
same,"TRPM7 activation, fold","TRPM7-M741A; M741A, [Naltriben] 100 µM",2.28 fold and 2.65 fold and 2.56 fold and 2.47 fold
same,"TRPM7 activation, fold","TRPM7-M741A; M741A, [Naltriben] 200 µM",2.83 fold and 3.14 fold and 3.02 fold and 2.90 fold
same,"TRPM7 activation, fold","TRPM7-M741A; M741A, [Naltriben] 300 µM",3.11 fold and 3.30 fold and 3.34 fold and 3.20 fold
same,"TRPM7 activation, fold","TRPM7-M741A; M741A, [Naltriben] 400 µM",3.18 fold and 3.51 fold and 3.48 fold and 3.46 fold
same,"TRPM7 activation, fold","TRPM7-M741A; M741A, [Naltriben] 500 µM",3.39 fold and 3.58 fold (2×) and 3.45 fold
same,Hill coefficient,"TRPM7-M741A; M741A, agonist, mean ± SEM",1.37 ± 0.11
same,EC50,TRPM7-L671A/N752K,230 ± 48.9 µM
same,Hill coefficient,"TRPM7-L671A/N752K; N752K/ L671A, agonist, mean ± SEM",2.82 ± 1.38
same,EC50,TRPM7-L671A,145 ± 22.9 µM
same,Hill coefficient,"TRPM7-L671A; L671A, agonist, mean ± SEM",1.68 ± 0.32
same,EC50,TRPM7-S744A,71.8 ± 9.7 µM
same,Hill coefficient,"TRPM7-S744A; S744A, agonist, mean ± SEM",1.48 ± 0.25
same,EC50,TRPM7-D670A,117 ± 32.4 µM
same,"TRPM7 activation, fold","TRPM7-D670A; D670A, [Naltriben] 10 µM",1.01 fold and 1.02 fold and 1.12 fold
same,"TRPM7 activation, fold","TRPM7-D670A; D670A, [Naltriben] 20 µM",1.24 fold and 1.22 fold and 1.21 fold
same,"TRPM7 activation, fold","TRPM7-D670A; D670A, [Naltriben] 30 µM",1.55 fold and 1.37 fold (2×)
same,"TRPM7 activation, fold","TRPM7-D670A; D670A, [Naltriben] 40 µM",1.67 fold and 1.48 fold and 1.56 fold
same,"TRPM7 activation, fold","TRPM7-D670A; D670A, [Naltriben] 50 µM",2.45 fold and 1.56 fold and 1.72 fold
same,"TRPM7 activation, fold","TRPM7-D670A; D670A, [Naltriben] 100 µM",2.45 fold and 2.03 fold and 2.05 fold
same,"TRPM7 activation, fold","TRPM7-D670A; D670A, [Naltriben] 200 µM",3.19 fold and 2.69 fold and 2.68 fold
same,"TRPM7 activation, fold","TRPM7-D670A; D670A, [Naltriben] 300 µM",3.34 fold and 3.00 fold and 2.98 fold
same,"TRPM7 activation, fold","TRPM7-D670A; D670A, [Naltriben] 400 µM",3.55 fold and 3.27 fold and 3.16 fold
same,"TRPM7 activation, fold","TRPM7-D670A; D670A, [Naltriben] 500 µM",3.71 fold and 3.18 fold and 3.31 fold
same,Hill coefficient,"TRPM7-D670A; D670A, agonist, mean ± SEM",1.17 ± 0.24
same,solubility,[1],limited solubility
